Legend:
[1] = system: iNKT TCR of DN3A4-1.2 Vα14+ iNKT hybridoma cells; test: Binding avidity of mCD1d-loaded glycolipids to Vα14+ iNKT cells (ternary interaction); design: species or system mouse
Experimental: (3A) DN3A4-1.2 Vα14+ iNKT hybridoma cells and (3B) 7DW8-5-expanded Vα24^+ iNKT cells were incubated with various concentrations of the indicated dimeric mCD d-glycolipid and hCD1d-glycolipid complexes for 30 min at 4° C., respectively. The level of bound complexes at the indicated concentration was detected by anti-mIgG1 secondary antibody and analyzed by flow cytometry. The relationship between the binding percentage and the concentration of CD1ddi-glycolipids complex was plotted in mice (3A) and humans (3B). KD values in mice (3C) and humans (3D) were calculated from Scatchard transformation of the plot (3A) and 3B), respectively. Assay was performed in duplicates.
Briefly, murine CD1d:Ig dimer (BD Biosciences PharMingen, San Diego, Calif.) was loaded with glycolipids at a molar ratio of 1:10 or vehicle for overnight at 37° C. Murine 1.2 Vα14+ iNKT cells were incubated with various doses of dimer-glycolipid complex in buffer containing azide (0.05%) for 30 min at 4° C. These cells were then stained with anti-mouse IgG1-PE mAb (A85-1) for another 30 min at 4° C., followed by washing, fixation with 4% paraformaldehyde (PFA), and the bound mCD1d dimer complexes were detected by flow cytometry. The binding curve and linear fit of the Scatchard transformation were plotted by Graphpad Prism software.
Next, we measured the ternary interaction between CD1d-glcolipid complex and the iNKT TCR in mice and humans. Different concentrations of mCD1d^di-glycolipid and hCD1d^di-glycolipid complexes were incubated with fixed amounts of DN3A4-1.2 murine iNKT hybridoma cells and human Vα24+/Vβ11^+ iNKT cells, respectively. The level of bound complexes at the indicated concentration was detected by anti-mIgG1 secondary antibody and analyzed by flow cytometry (FIGS. 3A and 3B). The KD of the ternary complex was calculated from the Scatchard transformation of the plots in FIGS. 3A and 3B using GraphPad Prism software. […] This was consistent with the observation that higher percentages of C1-pulsed splenocytes were stained by the mCD1d-7DW8-5 complex (36.2±5.0%) than mCD1d-7DW8-5-Glc complex (17.1±0.8%) (FIG. 11).

[2] = system: B6 Jα18 KO mice splenocytes; test: FACS analyses of Jα18 KO mouse immune cells after glycolipid stimulation; type: in vivo; details: 1 μg/mouse i.v.; 3 days
Experimental: B6 Jα18 KO mice treated with the indicated glycolipid (1 μg/mouse) or vehicle (% DMSO in PBS) were sacrificed at 72 hr post-injection and their splenocytes were subjected to FACS analysis. (9A) The total splenocytes, (9B) total CD11Chi cells, (9C) CD11Chi/CD80+ cells, (9D) CD11Chi/CD86+ cells, (9E) CD4^+ T cells and (9F) CD8^+ T cells (student t test: *, p<0.05, as compared to D).
B6 WT or Jα18 KO mice treated with specific glycolipid (1 μg/mouse) or vehicle (1% DMSO in PBS) were sacrificed at 72 hr post-injection and their spleens were harvested. After pressing spleens through 70 um strainer and lysis of erythrocytes, the nucleated cells were resuspended in PBS buffer containing azide (0.05%) and stained with antibodies recognizing the indicated cell surface antigens for 30 min at 4° C. After washing, the splenocytes were subjected to FACS analysis. The antibodies against CD3, CD4, CD8α, CD11c, CD80, and CD86 were obtained from BD Bioscience-Pharmingen.
Unexpectedly, we also observed that 7DW8-5-Glc induced chemokines in Jα18 KO mice (FIG. 7).

Jα18 KO mice = test: Murine serum cytokine/chemokine secretion after i.v. glycolipid, Jα18 knockout mice; type: in vivo; details: 1 μg/mouse; sera 2 and 18 hr
Experimental: B6 wild type and Jα18 knockout mice were i.v. injected with the indicated glycolipids (1 μg/mouse) or vehicle. Sera collected at 2 h and 18 h post-injection were analyzed for cytokines like IL-2 (7A), IL-6 (7B), GM-CSF (7C) and TNFα (7D) as well as chemokines such as IP-10 (7E), MIG (7F), KC (7G) and MCP-1 (7H). Only MIG peaked at 18 hr post-injection, while the others peaked at 2 hr post-injection.
All the glycolipids were dissolved in 100% DMSO at a concentration of 1-2 mg/ml. For in vivo experiments, all compounds were diluted to 10 μg/ml in saline just before injection of 100 μl diluted glycolipid or 100 μl 1% DMSO into mice. Pathogen-free C57BL/6 female mice aged 6-12 weeks were obtained from the National Laboratory Animal Center (Taipei, Taiwan). Jα18 knockout (KO) B6 mice were the gifts from Dr. Masaru Taniguchi (RIKEN Research Center for Allergy and Immunology, Yokohama, Japan). All the mice were maintained in pathogen free vivarium of Institute of Cellular and Organismic Biology, Academia Sinica (Taipei, Taiwan).
B6 WT or Jα18 KO mice were intravenously injected with vehicle or glycolipids at 0.1 or 1 μg/mouse. Serum was collected at 2 and 18 h after injection for measurement of cytokines/chemokines by Beadlyte® Mouse Cytokine kit (Millipore, N.Y.) and read by a Luminex® 200™ system (Luminex, Austin, Tex.).

C1-pulsed splenocytes = test: CD1d dimer staining of in vivo C1-pulsed splenocytes; type: binding, B6 WT mice; details: CD3+/CD45R− gated; 3 days after C1 1 μg/mouse
Experimental: B6 WT splenocytes (n=3) were harvested 3 days after injection with C1 (1 μg/mouse) and stained with CD3, CD45R and the indicated dimer complex conjugated with RPE for 1 hr at 4 degrees Celsius. (11A) CD3+/CD45R− cells were gated to analyze the dimer staining. (11B) unloaded dimer was used as the control. (11C) mCD1d dimer loaded with 7DW8-5-Glc stained 17.1±0.8% of C1-pulsed splenocytes. (11D) mCD1d dimer loaded with 7DW8-5 stained 36.2±5.0% of C1-pulsed splenocytes.

B6 wild type mice = details: previously reported; cited from earlier work

CCCCCCCCCCCCCC[C@@H](O)[C@@H](O)[C@H](CO[C@H]1O[C@H](CO)[C@H](O)[C@H](O)[C@H]1O)NC(=O)CCCCCCCCCCc1ccc(F)cc1 [Compound 7DW8-5, reference compound]
fold stronger interaction with iNKT TCR than mCD1d-7DW8-5-Glc complex ([1]; mCD1d complex): ~10 fold
total splenocytes, CD4+ T and CD8+ T cells in Jα18 KO mice [2]: No significant differences
induction of cytokines in Jα18 KO mice (Jα18 KO mice): no induction
percentage of C1-pulsed splenocytes stained by mCD1d dimer loaded with glycolipid (C1-pulsed splenocytes): 36.2±5.0%
dose sufficient for immune stimulation (B6 wild type mice): 0.1 μg/mouse

CC[C@@H](O)[C@@H](O)[C@H](CO[C@H]1OC(CO)[C@@H](O)C(O)C1O)NC(=O)Cc1ccc(F)cc1 (some centres unmarked) [Compound 7DW8-5-Glc]
expansion/activation of CD11chi monocyte-derived DCs in Jα18 KO mice [2]: significantly expanded and activated
total splenocytes, CD4+ T and CD8+ T cells in Jα18 KO mice [2]: No significant differences
induction of cytokines in Jα18 KO mice (Jα18 KO mice): no induction
secretion of chemokines KC, MCP-1, IP-10 and MIG in Jα18 KO mice (Jα18 KO mice): triggered the secretion
percentage of C1-pulsed splenocytes stained by mCD1d dimer loaded with glycolipid (C1-pulsed splenocytes): 17.1±0.8%

CCCCCCCCCCCCCC[C@@H](O)[C@@H](O)[C@H](CO[C@H]1O[C@H](CO)[C@@H](O)[C@H](O)[C@@H]1O)NC(=O)CCCCCCCCCCc1ccc(F)cc1 [Compound 7DW8-5-Man]
staining of murine iNKT cells with CD1d-glycolipid dimer [1]: lack of staining

— patent US10533034B2, “Human iNKT cell activation using glycolipids” (ACADEMIA SINICA, priority 2014, dated 2020)
